Columns and labels:
BGT1 = test system: BGT1; parameters: method as in Kobayashi et al., 2014; conditions: ref Kobayashi et al., 2014, cited from earlier work
BGT1 E52Y = target: T1, BGT1 E52Y (Homo sapiens, UniProt P48065, E52Y); experiment: [3H]GABA uptake assay, transient expression in tsA201 cells; assay type: cell-based; conditions: for IC50: BGT1 E52Y, tsA201 cells
T1 construct: expressed in transfected cells; host or cells: tsA201 (transformed HEK293), transient
T1 sequence (P48065 1-614 E52Y): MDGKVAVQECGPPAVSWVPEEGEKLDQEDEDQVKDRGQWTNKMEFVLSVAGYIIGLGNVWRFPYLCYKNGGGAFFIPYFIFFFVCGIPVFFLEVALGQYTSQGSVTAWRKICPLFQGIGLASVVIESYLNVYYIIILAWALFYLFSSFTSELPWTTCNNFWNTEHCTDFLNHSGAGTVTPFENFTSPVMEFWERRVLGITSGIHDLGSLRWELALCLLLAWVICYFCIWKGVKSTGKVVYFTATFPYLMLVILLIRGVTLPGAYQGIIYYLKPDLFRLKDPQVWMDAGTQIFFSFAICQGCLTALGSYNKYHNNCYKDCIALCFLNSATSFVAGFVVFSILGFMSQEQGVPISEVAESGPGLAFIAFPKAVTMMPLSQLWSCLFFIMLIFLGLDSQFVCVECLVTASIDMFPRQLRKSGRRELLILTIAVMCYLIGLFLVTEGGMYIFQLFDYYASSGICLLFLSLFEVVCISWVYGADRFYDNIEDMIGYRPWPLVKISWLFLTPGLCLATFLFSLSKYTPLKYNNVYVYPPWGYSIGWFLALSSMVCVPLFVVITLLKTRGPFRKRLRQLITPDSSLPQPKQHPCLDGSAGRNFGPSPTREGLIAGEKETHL
Procedure: The residue Q299 in human BGT1 corresponds to leucine in all other GATs (human, rat, mouse), while E52 corresponds to tyrosine in GAT1 (human, rat, mouse) but is conserved among GAT2, GAT3 and BGT1 (human, rat, mouse) (Figure 6A) ([Kickinger et al., 2019]).
The tsA201 cell line (a transformed HEK293 cell line), the Flp-In CHO cell lines stably expressing human (h) GATs and the HEK293 cell line stably expressing human α1β2γ2 GABAA receptors have been described previously and were cultured accordingly ([Al-Khawaja et al., 2014]; [Falk-Petersen et al., 2020]). The tsA201 cell line used for transient expression of hGATs was transfected with DNA constructs (8 μg per 10 cm plate) using 40 μL PolyFect transfection reagent according to the manufacturer’s protocol (Qiagen).
Briefly, cells were seeded in white 96-well plates (White Opaque Tissue Culture (TC) plated 96-well Microplate) pre-coated with PDL. Medium was removed on the following day and cells washed with 100 µL/well assay buffer (HBSS supplemented with 20 mM HEPES, 1 mM CaCl2 and 1 mM MgCl2, pH 7.4). […] The cells were washed 3 times with 100 µL/well ice-cold assay buffer, 150 µL/well MicroScint™20 was subsequently added before the plate was shaken for at least 1 h. The plate was counted in a Packard TopCounter microplate scintillation counter (PerkinElmer) for 3 min per well. […] Data presented is the pooled data of at least three independent experiments with three technical replicates if not stated otherwise in figure legends. Concentration–response curves were fitted by non-linear regression to the sigmoidal concentration-response model with GraphPad Prism (version 9.0.0, GraphPad Software, San Diego, CA, United States) as described ([Lie et al., 2020]).

| Compound | IC50 (BGT1; BGT1 inhibition) [µM] | Higher activity for BGT1 compared to 1 (BGT1) [times] | Higher activity for BGT1 than GAT3 (BGT1; subtype-selectivity BGT1 vs GAT3) [times] | Decrease in inhibitory activity compared to wildtype (BGT1 E52Y; BGT1 E52Y vs BGT1 wt) [times] | IC50 (BGT1 E52Y) [µM] |
| --- | --- | --- | --- | --- | --- |
| N[C@@]12CC[C@H](C(=O)O)[C@@H]1C2 [bicyclo-GABA, (1S,2S,5R)-5-aminobicyclo[3.1.0]hexane-2-carboxylic acid] | 0.59 | 9 | 129 | 7 | 11 |
| CN[C@@]12CC[C@H](C(=O)O)[C@@H]1C2 [compound 2] |  |  |  |  | 20 |

— paper PMC8476755 (Frontiers in Chemistry, 2021)
